Values after ≈ are worked out from the molar mass of the structure shown. Where two headings read alike, the source gives them in different places.
Key:
[1] = tested on: S. alachua RDK 030c (QA-1482/04); test: MIC broth microdilution, S. alachua; format: cell-based; details: Salmonella; read-out: MIC S. alachua RDK 030c (QA-1482/04)
Method: (§1) Antimicrobial testing was carried out by the broth microdilution method in 96-well plate format following the Clinical and Laboratory Standards Institute (CLSI) guidelines and European Committee on Antimicrobial Susceptibility Testing (EUCAST) recommendations. Bacterial suspension of specific bacterial strain equivalent to 0.5 McFarland turbidity standard was diluted with cation-adjusted Mueller Hinton broth with TES (Thermo Fisher Diagnostic, Landsmeer, The Netherlands), to obtain a final inoculum of 10^5 CFU/mL. Compounds dissolved in DMSO and inoculum were mixed together and incubated for 18–20 h at 35 °C. Suspensions of Mycobacterium sp. were prepared into a tube of Middelbrook 7H9 broth supplemented with 5% OADC (Thermo Scientific, Trek Diagnostic Systems, West Sussex, UK) and incubated for at least 10 days. After incubation the minimal inhibitory concentration (MIC) values were determined by visual inspection as the lowest dilution of compounds showing no turbidity. Tetracycline was used as a positive control on every assay plate.

MRSA (QA-11.7) = test: MIC broth microdilution, MRSA QA-11.7; format: cell-based, methicillin-resistant S. aureus; details: Staphylococcus aureus, 20 h, read-out: MIC MRSA (QA-11.7)
Method: as §1

S. aureus (ATCC 29213) = test: MIC broth microdilution, S. aureus ATCC 29213; format: cell-based
Method: as §1

S. pneumoniae (QA-10/02) = test: MIC broth microdilution, S. pneumoniae; format: cell-based; details: Streptococcus pneumoniae
Method: as §1

MRSA (QA-11.2) = test: MIC broth microdilution, MRSA QA-11.2; format: cell-based, methicillin-resistant S. aureus; details: Staphylococcus aureus, 20 h, resistant to cefoxitin, chloramphenicol, clindamycin, linezolid, tetracycline, thiamulin, trimethoprim, read-out: MIC MRSA (QA-11.2)
Method: as §1

MRSA (QA-11.4) = test: MIC broth microdilution, MRSA QA-11.4; format: cell-based, methicillin-resistant S. aureus; details: Staphylococcus aureus, 20 h, resistant to cefoxitin, read-out: MIC MRSA (QA-11.4)
Method: as §1

MRSA = test: MIC broth microdilution, MRSA; format: cell-based, methicillin-resistant S. aureus; details: Staphylococcus aureus, read-out: MIC MRSA
Method: as §1

[2] = Equilibrium solubility at pH 6.8; details: phosphate buffered saline, 37 °C, pH 6.8, aqueous buffer, thermodynamic from solid
Method: (§2) Prior to the measurements of solubility and permeability isocratic HPLC methods were developed. […] The individual method parameters for each compound are given in the Supplementary Materials Table S1.
The vials were then placed in a homogenizer (Next Advance Bullet Blender, Troy, NY, USA) for 5 min ad speed setting “2” after which they were kept in a thermostated shaker (Tehtnica HeatMix, Domel, Slovenia) at 37 °C and 1200 RPM for 24 h. […] Twenty µL of these solutions were injected for the HPLC analysis by the described methods (Supplementary Materials Table S1). External standards for calibration were made in a mobile phase with 5% acetonitrile in a range of 30–90 mg/L and injected at 20 µL injection volumes.

E. coli D22 = test: MIC broth microdilution, E. coli D22; format: cell-based; details: Escherichia coli, D22; mutation in the lpxC gene that increases membrane permeability; read-out: MIC E. coli D22
Method: as §1

E. coli (QA-11.8) = test: MIC broth microdilution, E. coli QA-11.8; format: cell-based; details: Escherichia coli, 20 h; read-out: MIC E. coli (QA-11.8)
Method: as §1

[3] = tested on: C. jejuni RDK 135 (ATCC 33560); test: MIC broth microdilution, C. jejuni; format: cell-based; details: Campylobacter jejuni, ATCC33560; read-out: MIC C. jejuni RDK 135 (ATCC 33560)
Method: as §1

M. smegmatis = test: MIC, M. smegmatis; format: cell-based, Mycobacterium smegmatis; details: Mycolicibacterium smegmatis; read-out: MIC M. smegmatis
Method: as §1

E. coli (QA-11.7) = test: MIC broth microdilution, E. coli QA-11.7; format: cell-based; details: Escherichia coli, 20 h; multi-resistant isolate (ampicillin, azithromycin, cefotaxime, ertapenem, imipenem and others); read-out: MIC E. coli (QA-11.7)
Method: as §1

M. avium = test: MIC, M. avium; format: cell-based; details: Mycobacterium avium; read-out: MIC M. avium
Method: as §1

in vitro = details: PAMPA
Method: as §2
A 96-well precoated three-layer PAMPA plates (Corning® Gentest™ Pre-coated PAMPA Plate System, Corning, NY, USA) were used according to the manufacturer’s instructions and as described previously with 300 µL of the donor solutions in the bottom compartment and 200 µL of the acceptor solution (pH 7.4 PBS) in the upper compartment at 37 °C and a 4-h incubation time. The initial and end donor solutions were injected at a 5 µL injection volume. The initial donor solutions were also diluted 100-fold and injected at a 100 µL injection volume to serve as external references for the end acceptor solutions which were injected at the same injection volume. The permeability calculations were made with a manufacturer-provided Excel spreadsheet directly from the measured peak areas accounting for the relevant dilutions and injection volumes.

MRSA (QA-11.6) = test: MIC broth microdilution, MRSA QA-11.6; format: cell-based, methicillin-resistant S. aureus; details: Staphylococcus aureus, resistant to cefoxitin, gentamicin, sulfamethoxazole, tetracycline, read-out: MIC MRSA (QA-11.6)
Method: as §1

Human topoisomerase IIα = target: T1, Human topoisomerase IIα (Homo sapiens, UniProt P11388); test: Human topoisomerase II Alpha Relaxation High Throughput Plate assay; format: biochemical; details: 0.5 h; residual activity of the enzyme at compound concentration 10 μM, mean ± SD; read-out: Human Topo II (% RA)
T1 construct: purchased Inspiralis (Norwich, UK)
Method: A Human topoisomerase II Alpha Relaxation High Throughput Plate assay kit, purchased from Inspiralis (Norwich, UK) was used to evaluate the selectivity of compounds for the bacterial enzymes over the homologous human topoisomerase II. […] Biotinylated oligonucleotide in wash buffer was immobilized onto the wells and the excess oligonucleotide was washed off with wash buffer. […] The reactions were stopped by adding the TF buffer (50 mM NaOAc (pH 4.7), 50 mM NaCl, and 50 mM MgCl2) to allow the triplex formation (biotin-oligonucleotide-plasmid) for additional 30 min. Afterward, the unbound plasmid was washed off using TF buffer, and the solution of Promega Diamond dye in T10 buffer (10 mM Tris-HCl (pH 8.0), 1 mM EDTA) was added. […] Screening was performed at inhibitor concentrations of 10 μM. Raw data were converted to mean ± SD percentage of residual activity of the enzyme obtained by two independent measurements.

[4] = Staphylococcus aureus, ATCC29213; S. aureus ATCC 29213; read-out: S. aureus MIC (converted)
[5] = Staphylococcus aureus, ATCC29213; read-out: MIC S. aureus (ATCC 29213)

T1 sequence (P11388 whole entry): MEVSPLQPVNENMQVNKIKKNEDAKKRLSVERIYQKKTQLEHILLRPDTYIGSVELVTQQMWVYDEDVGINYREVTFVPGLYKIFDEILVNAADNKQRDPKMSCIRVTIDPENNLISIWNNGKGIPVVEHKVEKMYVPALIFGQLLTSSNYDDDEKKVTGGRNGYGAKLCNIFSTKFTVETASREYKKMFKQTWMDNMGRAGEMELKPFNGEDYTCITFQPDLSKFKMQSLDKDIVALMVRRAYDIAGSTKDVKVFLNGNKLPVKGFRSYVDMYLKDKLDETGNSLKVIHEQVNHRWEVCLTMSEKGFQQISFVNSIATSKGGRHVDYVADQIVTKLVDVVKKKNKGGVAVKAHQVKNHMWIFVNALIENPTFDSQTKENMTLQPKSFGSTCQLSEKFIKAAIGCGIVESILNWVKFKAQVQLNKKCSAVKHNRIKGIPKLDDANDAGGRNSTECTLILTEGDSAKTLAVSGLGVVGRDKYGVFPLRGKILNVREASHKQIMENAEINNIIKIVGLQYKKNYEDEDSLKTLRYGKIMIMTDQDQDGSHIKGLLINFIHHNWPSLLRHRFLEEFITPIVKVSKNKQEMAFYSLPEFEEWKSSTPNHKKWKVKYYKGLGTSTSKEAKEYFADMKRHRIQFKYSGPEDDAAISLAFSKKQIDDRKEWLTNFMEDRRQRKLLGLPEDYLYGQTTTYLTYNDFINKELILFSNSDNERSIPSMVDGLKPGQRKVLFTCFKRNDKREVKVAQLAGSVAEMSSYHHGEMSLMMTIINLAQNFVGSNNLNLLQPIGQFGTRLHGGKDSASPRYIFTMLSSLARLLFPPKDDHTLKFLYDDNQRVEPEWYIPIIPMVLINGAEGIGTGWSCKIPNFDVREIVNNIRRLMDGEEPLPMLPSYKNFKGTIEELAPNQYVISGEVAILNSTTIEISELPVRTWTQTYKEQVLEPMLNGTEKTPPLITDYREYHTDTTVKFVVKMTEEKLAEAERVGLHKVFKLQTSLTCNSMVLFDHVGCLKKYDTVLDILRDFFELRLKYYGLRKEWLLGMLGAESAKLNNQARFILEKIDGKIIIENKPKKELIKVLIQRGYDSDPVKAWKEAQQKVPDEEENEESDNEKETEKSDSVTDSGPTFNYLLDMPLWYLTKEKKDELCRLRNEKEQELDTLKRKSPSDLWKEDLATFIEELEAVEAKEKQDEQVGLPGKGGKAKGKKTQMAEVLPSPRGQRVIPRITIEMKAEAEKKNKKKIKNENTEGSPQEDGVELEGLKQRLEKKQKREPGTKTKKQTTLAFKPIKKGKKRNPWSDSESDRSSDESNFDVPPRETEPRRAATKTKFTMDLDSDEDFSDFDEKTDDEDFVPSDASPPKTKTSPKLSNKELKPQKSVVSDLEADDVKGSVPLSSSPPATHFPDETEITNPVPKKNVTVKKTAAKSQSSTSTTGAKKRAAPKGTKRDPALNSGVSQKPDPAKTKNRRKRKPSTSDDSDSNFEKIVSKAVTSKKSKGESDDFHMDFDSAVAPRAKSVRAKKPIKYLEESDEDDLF

| SMILES | MIC [1] [µg/mL] | MIC (MRSA (QA-11.7)) [µg/mL] | MIC (S. aureus (ATCC 29213); [4]) [µM] | MIC (S. aureus (ATCC 29213); [5]) [µg/mL] | MIC (S. pneumoniae (QA-10/02)) [µg/mL] | MIC (MRSA (QA-11.2)) [µg/mL] | MIC (MRSA (QA-11.4)) [µg/mL] | MIC (MRSA) [µg/mL] | solubility thermodynamic at 24 h [2] [µg/mL] | MIC (E. coli D22) [µg/mL] | MIC (E. coli (QA-11.8)) [µg/mL] | MIC [3] [µg/mL] | MIC (M. smegmatis) [µg/mL] | MIC (E. coli (QA-11.7)) [µg/mL] | MIC (M. avium) [µg/mL] | Papp at 4 h (in vitro) [×10⁻⁶ cm/s] | Papp at 4 h (in vitro; pH 7.4) [×10⁻⁶ cm/s] | MIC (MRSA (QA-11.6)) [µg/mL] | remaining activity at 10 µM (Human topoisomerase IIα) [%] | MIC (S. aureus (ATCC 29213); Staphylococcus aureus, ATCC29213, read-out: MIC S. aureus (ATCC 29213)) [µg/mL] |
| --- | --- | --- | --- | --- | --- | --- | --- | --- | --- | --- | --- | --- | --- | --- | --- | --- | --- | --- | --- | --- |
| COc1ccc2nccc(CCN3CCC(NCc4ccc(OC(F)F)c(O)c4)CC3)c2n1 [Compound 20, 2-(Difluoromethoxy)-5-((1-(2-(6-methoxy-1,5-naphthyridin-4-yl)ethyl)piperidin-4-ylamino)methyl)phenol] | 64 (≈ 140 µM) | 0.5 (≈ 1.09 µM) | 1.09 | 0.5 | 1 (≈ 2.18 µM) | 1 (≈ 2.18 µM) | 2 (≈ 4.36 µM) | 1 (≈ 2.18 µM) | 103 (≈ 225 µM) | 2 (≈ 4.36 µM) | 4 (≈ 8.72 µM) | 0.015 (≈ 0.0327 µM) | 0.5 (≈ 1.09 µM) | 2 (≈ 4.36 µM) | 128 (≈ 279 µM) | > 2.7 | 3 | 1 (≈ 2.18 µM) | 94.8 | – |
| COc1ccc2nccc(CCN3CCC(NCc4ccccc4)CC3)c2n1 [Compound 11] | > 128 | 8 (≈ 21.2 µM) | 10.6 | 4 | 2 (≈ 5.31 µM) | 8 (≈ 21.2 µM) | 8 (≈ 21.2 µM) | 8 (≈ 21.2 µM) | 1370 (≈ 3640 µM) | 16 (≈ 42.5 µM) | 64 (≈ 170 µM) | 32 (≈ 85 µM) | 8 (≈ 21.2 µM) | 32 (≈ 85 µM) | > 128 | > 2.7 | 10.9 | 8 (≈ 21.2 µM) | 97 ± 9.58 | – |
| COc1ccc2nccc(CCN3CCC(NCc4ccc(Cl)cc4)CC3)c2n1 [Compound 13] | 32 (≈ 77.9 µM) | 0.5 (≈ 1.22 µM) | 0.3 | – | 0.5 (≈ 1.22 µM) | 0.25 (≈ 0.608 µM) | 0.5 (≈ 1.22 µM) | 0.25 (≈ 0.608 µM) | 119 (≈ 290 µM) | 2 (≈ 4.87 µM) | 2 (≈ 4.87 µM) | 2 (≈ 4.87 µM) | 0.25 (≈ 0.608 µM) | 1 (≈ 2.43 µM) | 4 (≈ 9.73 µM) | > 2.7 | 13.2 | 0.25 (≈ 0.608 µM) | 102 ± 0.84 | 0.125 |
| COc1ccc2nccc(CCN3CCC(NCc4cnn(-c5ccccc5)c4)CC3)c2n1 [Compound 5, 1-(2-(6-Methoxy-1,5-naphthyridin-4-yl)ethyl)-N-((1-phenyl-1H-pyrazol-4-yl)methyl)piperidin-4-amine] | 64 (≈ 145 µM) | 0.5 (≈ 1.13 µM) | 0.57 | 0.25 | 0.5 (≈ 1.13 µM) | 1 (≈ 2.26 µM) | 1 (≈ 2.26 µM) | 0.5 (≈ 1.13 µM) | 381 (≈ 861 µM) | 1 (≈ 2.26 µM) | 2 (≈ 4.52 µM) | 16 (≈ 36.2 µM) | 0.25 (≈ 0.565 µM) | 2 (≈ 4.52 µM) | 64 (≈ 145 µM) | > 2.7 | 25.5 | 1 (≈ 2.26 µM) | 82.1 ± 2.52 | – |
| COc1ccc2nccc(CCN3CCC(NCc4cnn(-c5ccccc5)n4)CC3)c2n1 [Compound 8, 1-(2-(6-Methoxy-1,5-naphthyridin-4-yl)ethyl)-N-((2-phenyl-2H-1,2,3-triazol-4-yl)methyl)piperidin-4-amine] | > 128 | 0.5 (≈ 1.13 µM) | 1.13 | 0.5 | 0.25 (≈ 0.564 µM) | 0.5 (≈ 1.13 µM) | 1 (≈ 2.25 µM) | 0.5 (≈ 1.13 µM) | 106 (≈ 239 µM) | 32 (≈ 72.1 µM) | 32 (≈ 72.1 µM) | 4 (≈ 9.02 µM) | 0.5 (≈ 1.13 µM) | 4 (≈ 9.02 µM) | 32 (≈ 72.1 µM) | > 2.7 | 10.6 | 0.5 (≈ 1.13 µM) | 94.2 ± 2.9 | – |
| COc1ccc2nccc(CCN3CCC(NCc4ccc(N(C)C)cc4)CC3)c2n1 [Compound 18] | 128 (≈ 305 µM) | 0.5 (≈ 1.19 µM) | 0.31 | – | 0.25 (≈ 0.596 µM) | 0.5 (≈ 1.19 µM) | 0.5 (≈ 1.19 µM) | – | 537 (≈ 1280 µM) | 8 (≈ 19.1 µM) | 8 (≈ 19.1 µM) | 4 (≈ 9.53 µM) | 4 (≈ 9.53 µM) | 4 (≈ 9.53 µM) | 128 (≈ 305 µM) | > 2.7 | 16.7 | 0.25 (≈ 0.596 µM) | 94.2 ± 1.33 | – |
